Molecular target: Tumour suppressor p53/oncoprotein Mdm2 (Homo sapiens, UniProt P04637+Q00987)
Assay: In vitro inhibitory concentration against p53-mdm2 interaction
Assay type: protein assay

Tumour suppressor p53/oncoprotein Mdm2, sequence (P04637 whole entry): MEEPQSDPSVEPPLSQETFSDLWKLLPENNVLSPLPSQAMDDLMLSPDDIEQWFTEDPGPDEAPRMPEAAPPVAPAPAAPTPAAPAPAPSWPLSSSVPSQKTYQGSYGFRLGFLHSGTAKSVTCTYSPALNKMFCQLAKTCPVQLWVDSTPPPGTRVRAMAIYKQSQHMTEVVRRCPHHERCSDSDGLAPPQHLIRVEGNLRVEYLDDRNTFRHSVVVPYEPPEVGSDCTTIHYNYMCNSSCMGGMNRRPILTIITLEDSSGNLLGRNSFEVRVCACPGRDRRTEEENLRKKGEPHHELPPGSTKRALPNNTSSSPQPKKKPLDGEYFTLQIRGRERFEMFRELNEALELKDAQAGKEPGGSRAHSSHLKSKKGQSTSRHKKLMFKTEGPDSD
Tumour suppressor p53/oncoprotein Mdm2, sequence (Q00987 whole entry): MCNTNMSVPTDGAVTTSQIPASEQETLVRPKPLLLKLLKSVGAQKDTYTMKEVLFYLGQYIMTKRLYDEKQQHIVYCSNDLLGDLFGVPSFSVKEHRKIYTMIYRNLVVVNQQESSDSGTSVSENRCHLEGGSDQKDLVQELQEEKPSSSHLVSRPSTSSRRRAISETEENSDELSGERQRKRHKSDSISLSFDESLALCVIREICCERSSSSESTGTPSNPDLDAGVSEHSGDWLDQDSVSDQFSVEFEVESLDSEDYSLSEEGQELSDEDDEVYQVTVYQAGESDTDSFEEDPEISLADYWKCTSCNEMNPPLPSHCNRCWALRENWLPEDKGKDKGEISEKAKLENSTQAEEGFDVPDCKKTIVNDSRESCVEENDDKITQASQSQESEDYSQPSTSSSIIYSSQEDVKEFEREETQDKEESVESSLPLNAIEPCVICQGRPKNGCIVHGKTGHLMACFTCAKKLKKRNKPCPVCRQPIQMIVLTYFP

IC50: 31.8 µM
Compound: CC(C)Oc1ccc(C(=O)NS(=O)(=O)c2ccc(NN=C3C(=O)N(c4ccccc4)N(c4ccccc4)C3=O)cc2)cc1

Reference: ChEMBL document CHEMBL1137206, “A nonpeptidic sulfonamide inhibits the p53-mdm2 interaction and activates p53-dependent transcription in mdm2-overexpressing cells” (J Med Chem, 2004)
